Assay results reported in article PMC10553838, “Functional and structural insights into the multi-step activation and catalytic mechanism of bacterial ExoY nucleotidyl cyclase toxins bound to actin-profilin” (PLOS Pathogens, 2023).

Legend:
Type in all cases: biochemical
[1] = biological target: T1, Vn-ExoY (Vn-ExoY^455-863) activated by G-actin-ATP/ADP-LatB (Vibrio nigripulchritudo, UniProt A0A9P1NJI6); assay: cCMP synthesis, [alpha-33P]NTP assay; conditions: 2 mM CTP, MgCl2, 6 uM LatB-Mg-G-actin, pH 8.0, 30 °C; labelled compound
T1 construct: gene VIBNI_0210; ExoY effector domain of MARTX toxin, residues 3455-3863, N-terminal twin-Strep-tag with PreScission site (cleaved for crystals), E. coli BL21(DE3); with rabbit skeletal muscle G-actin; with Actin, alpha skeletal muscle

[2] = biological target: T2, Pa-ExoY activated by F-actin (Pseudomonas aeruginosa, UniProt O85345); assay: cUMP synthesis, [alpha-33P]NTP assay; conditions: 2 mM UTP, MgCl2, 6 uM Mg-F-actin, pH 8.0, 30 °C; labelled compound
T2 construct: residues 20-378, N-terminal twin-Strep-tag (ST2), E. coli BL21(DE3), 44 kDa monomer; with Actin, alpha skeletal muscle

[3] = biological target: T2, Pa-ExoY activated by F-actin; assay: cGMP synthesis, [alpha-33P]NTP assay; conditions: 2 mM GTP, MgCl2, 3 uM Mg-F-actin, pH 8.0, 30 °C; labelled compound

Question: With `Nc1ccn([C@@H]2O[C@H](COP(=O)(O)OP(=O)(O)OP(=O)(O)O)[C@@H](O)[C@H]2O)c(=O)n1` [CTP] as the molecule, how does the “cCMP synthesis, [alpha-33P]NTP assay” value [1] read?
Answer: cCMP synthesis catalysed by wild-type or mutants of Vn-ExoY activated by G-actin

Question: With `O=c1ccn([C@@H]2O[C@H](COP(=O)(O)OP(=O)(O)OP(=O)(O)O)[C@@H](O)[C@H]2O)c(=O)[nH]1` [UTP] as the molecule, how does the “cUMP synthesis, [alpha-33P]NTP assay” value [2] read?
Answer: cCMP and cUMP synthesis catalysed by wild-type or mutants of Pa-ExoY activated by F-actin

Question: With `Nc1nc2c(ncn2[C@@H]2O[C@H](COP(=O)(O)OP(=O)(O)OP(=O)(O)O)[C@@H](O)[C@H]2O)c(=O)[nH]1` [GTP] as the molecule, how does the “cGMP synthesis, [alpha-33P]NTP assay” value [3] read?
Answer: cGMP synthesis catalysed by wild-type or mutants of Pa-ExoY activated by F-actin
